{"source": "patent US20250304921A1", "about": "(University of Pittsburgh-Of The Commonwealth System of …, priority 2022, published 2025)", "molecules": {"B1": {"name": "trypsin (protein, UniProt P00760 24-246, looked up)", "Serine protease 1": "IVGGYTCGANTVPYQVSLNSGYHFCGGSLINSQWVVSAAHCYKSGIQVRLGEDNINVVEGNEQFISASKSIVHPSYNSNTLNNDIMLIKLKSAASLNSRVASISLPTSCASAGTQCLISGWGNTKSSGTSYPDVLKCLKAPILSDSSCKSAYPGQITSNMFCAGYLEGGKDSCQGDSGGPVVCSGKLQGIVSWGSGCAQKNKPGVYTKVCNYVSWIKQTIASN", "notes": "exogenous protease added to fusion assays or virus titration"}}, "key": {"rFeMV^US5Venus (6) [1]": {"tested_on": "rFeMV^US5Venus (6)", "assay_type": "cell-based, Feline morbillivirus (FeMV)"}, "rFeMV^US5Venus (6) [2]": {"tested_on": "rFeMV^US5Venus (6)", "assay_type": "cell-based, Feline morbillivirus (FeMV)", "remark": "listed apart in the source"}, "[3]": {"tested_on": "rFeMV^US5Venus (6) or rFeMV^US5Venus (3)", "assay_type": "cell-based, Feline morbillivirus (FeMV)"}, "FeMV^US5FPB": {"tested_on": "FeMV^US5FPB", "assay": "Western blot of AU1-tagged F glycoprotein processing (F0 to F1) in transfected cells", "assay_type": "cell-based, Feline morbillivirus (FeMV)", "conditions": "E64d 20 μM vs DMSO; transfected CRFK cells, lysates at 2 d.p.t.", "experimental": "(§1) CRFK cells were transfected with pCG-FeMV^US5F, pCG-FeMV^US5FAU1, or pCG-FeMV^US5FPB-AU1 in the absence or presence of the pan-cysteine protease inhibitor E64d. At 2 d.p.t. cell lysates were prepared. Medium was removed and the monolayers were rinsed twice with 1 ml cold D-PBS. Cold 1× RIPA buffer (Boston bioproducts; 200 μl) containing 1× HALT protease inhibitors (Thermo Fisher Scientific) was added to the monolayers and incubated on ice for 15 minutes. Monolayers were scraped into the buffer and transferred to cold 1.5 ml tubes. Lysates were incubated on ice for 30 minutes with intermittent vortexing before being centrifuged at 14,000 g for 15 minutes at 4° C. to pellet nuclei. The cleared supernatants were used to prepare samples for polyacrylamide gel electrophoresis (PAGE) by adding appropriate volumes of 4× NUPAGE™ LDS sample loading buffer and ×10 NUPAGE™ reducing agent (both Thermo Fisher Scientific Scientific). PAGE samples were heated to 70° C. for 10 minutes before separation of proteins on a 10% NUPAGE™ bis-TRIS polyacrylamide gel using the Xcell SureLock Mini-Cell system (Thermo Fisher Scientific Scientific) according to manufacturer's instructions. An aliquot of SeeBlue Plus2 Protein Standard was included on each gel to allow estimation of protein sizes. […]"}, "FeMV^US5F": {"tested_on": "FeMV^US5F", "assay": "Western blot of AU1-tagged F glycoprotein processing (F0 to F1) in transfected cells", "assay_type": "cell-based, Feline morbillivirus (FeMV)", "conditions": "E64d 20 μM vs DMSO; transfected CRFK cells, lysates at 2 d.p.t.", "experimental": "as §1"}, "[4]": {"tested_on": "FeMV F and H glycoproteins", "assay_type": "cell-based, Feline morbillivirus (FeMV)"}, "[5]": {"tested_on": "NiV^MA F and G glycoproteins", "assay_type": "cell-based, Nipah virus (NiV)"}, "FeMV^US5FPB protein": {"tested_on": "FeMV^US5FPB protein", "assay_type": "cell-based, Feline morbillivirus (FeMV)"}, "[6]": {"tested_on": "MV^KS F and H glycoproteins", "assay_type": "cell-based"}, "[7]": {"tested_on": "CDV^RI F and H glycoproteins", "assay_type": "cell-based"}, "FeMV": {"tested_on": "FeMV", "conditions": "trypsin added during virus titration in CRFK cells; cited from earlier work"}}, "note": "“Also recorded” adds a separate entry of the source. Residues, ends and D or L forms follow the SMILES beside them. *: point of attachment. Decanoyl = CCCCCCCCCC(=O)*; CH2Cl = ClC*"}
{"molecule": "CCCNC(=O)[C@H]1O[C@@H]1C(=O)N[C@H](C(=O)N1CCC[C@H]1C(=O)OC)[C@@H](C)CC", "note": "[CA-074Me]", "values": [{"measurement": "cell-to-cell fusion and spread by rFeMV^US5Venus (6) and rFeMV^US5Venus (3)", "setting": "rFeMV^US5Venus (6) [1]", "result": "prevented cell-to-cell fusion and spread"}, {"measurement": "spread of rFeMV^US5Venus (6) infection", "setting": "rFeMV^US5Venus (6) [1]", "result": "limited to single cells with no spread from the initially infected cell"}, {"measurement": "virus entry and initial replication in cells", "setting": "rFeMV^US5Venus (6) [1]", "result": "can enter and initially replicate in cells equivalently to the no inhibitor control"}, {"measurement": "rFeMV^US5-induced cell-to-cell fusion (luciferase activity)", "setting": "rFeMV^US5Venus (6) [2]", "result": "reduced; also recorded: inhibited"}, {"measurement": "infectious virus titers", "setting": "[3]", "result": "reduced the infectious virus titers by two logs"}]}
{"molecule": "CCOC(=O)[C@H]1O[C@@H]1C(=O)N[C@@H](CC(C)C)C(=O)NCCC(C)C", "note": "[E64d]", "values": [{"measurement": "FeMV^US5FPB (polybasic cleavage signal) F0 processing", "setting": "FeMV^US5FPB", "result": "no longer prevented F0 glycoprotein processing"}, {"measurement": "FeMV^US5F processing (F0 to F1 subunit)", "setting": "FeMV^US5F", "result": "prevented FeMV^US5F processing"}, {"measurement": "FeMV glycoprotein-induced fusion", "setting": "[4]", "result": "significantly reduced; also recorded: inhibited"}, {"measurement": "NiV^MA glycoprotein-induced fusion", "setting": "[5]", "result": "significantly reduced"}, {"measurement": "fusion activity with FeMV^US5FPB protein", "setting": "FeMV^US5FPB protein", "result": "no longer affected the fusion activity"}, {"measurement": "cell-to-cell fusion and spread by rFeMV^US5Venus (6) and rFeMV^US5Venus (3)", "setting": "rFeMV^US5Venus (6) [1]", "result": "prevented cell-to-cell fusion and spread"}, {"measurement": "spread of rFeMV^US5Venus (6) infection", "setting": "rFeMV^US5Venus (6) [1]", "result": "limited to single cells with no spread from the initially infected cell"}, {"measurement": "virus entry and initial replication in cells", "setting": "rFeMV^US5Venus (6) [1]", "result": "can enter and initially replicate in cells equivalently to the no inhibitor control"}, {"measurement": "rFeMV^US5-induced cell-to-cell fusion (luciferase activity)", "setting": "rFeMV^US5Venus (6) [2]", "result": "reduced"}, {"measurement": "infectious virus titers", "setting": "[3]", "result": "reduced the infectious virus titers by two logs"}]}
{"molecule": "CCCCCCCCCC(=O)N[C@@H](CCCN=C(N)N)C(=O)N[C@H](C(=O)N[C@@H](CCCCN)C(=O)N[C@@H](CCCN=C(N)N)C(=O)CCl)C(C)C", "note": "[furin inhibitor I] (Decanoyl-RVKR-CH2Cl)", "values": [{"measurement": "FeMV glycoprotein-induced fusion", "setting": "[4]", "result": "unaffected"}, {"measurement": "MV^KS glycoprotein-induced fusion", "setting": "[6]", "result": "reduced"}, {"measurement": "CDV^RI glycoprotein-induced fusion", "setting": "[7]", "result": "reduced"}, {"measurement": "fusion activity with FeMV^US5FPB protein", "setting": "FeMV^US5FPB protein", "result": "significantly reduced fusion"}, {"measurement": "spread of rFeMV^US5Venus (6) infection", "setting": "rFeMV^US5Venus (6) [1]", "result": "had spread significantly"}, {"measurement": "rFeMV^US5-induced cell-to-cell fusion (luciferase activity)", "setting": "rFeMV^US5Venus (6) [2]", "result": "no difference in luciferase activity"}]}
{"molecule": "B1", "values": [{"measurement": "effect of exogenous trypsin on FeMV glycoprotein-induced cell-to-cell fusion", "setting": "[4]", "result": "did not enhance fusion"}, {"measurement": "effect of trypsin on resultant virus titers", "setting": "FeMV", "result": "did not augment the resultant virus titers"}]}
